Several values for one entry are separate records, joined by “and”; a condition that tells them apart may be missing. Equal values may be shown once. Activity calls are given as the source filed them. No rule for the calls is given here.
Test system: rodent lifetime carcinogenesis bioassay, tumor incidence TD50
Assay: carcinogenic potency in animals, long-term in vivo studies, CPDB compilation (AID 1745844)
Conditions: inhaled; for carcinogen call: lesion: one or several types, types not named

Q: For C=CC(=C)Cl, which TD50 (hamster, strain Syrian Golden, females, site: any site (literature study), lesion: several types, types named in the paper, dosed 78 weeks, study length 78 weeks) is on record?
A: Its TD50 is 180 mg/kg/day (inactive).

Q: And the carcinogen call (hamster, strain Syrian Golden, females, site: liver, dosed 78 weeks, study length 78 weeks)?
A: Its carcinogen call is “negative (inactive)”.

Q: And the carcinogen call (hamster, strain Syrian Golden, females, site: lung, dosed 78 weeks, study length 78 weeks)?
A: The carcinogen call was “negative (inactive)”.

Q: What about the TD50 (hamster, strain Syrian Golden, males, site: any site (literature study), lesion: several types, types named in the paper, dosed 78 weeks, study length 78 weeks) of the same compound?
A: Its TD50 is 110 mg/kg/day (inactive).

Q: And the carcinogen call (hamster, strain Syrian Golden, males, site: liver, dosed 78 weeks, study length 78 weeks)?
A: The carcinogen call was “negative (inactive)”.

Q: And the carcinogen call (hamster, strain Syrian Golden, males, site: lung, dosed 78 weeks, study length 78 weeks)?
A: Its carcinogen call is “negative (inactive)”.

Q: And the TD50 (mouse, strain B6C3F1, females, site: Harderian gland, lesion: adenoma + carcinoma, dosed 104 weeks, study length 104 weeks)?
A: Its TD50 is 55.2 mg/kg/day.

Q: And the TD50 (mouse, strain B6C3F1, females, site: Harderian gland, lesion: adenoma, dosed 104 weeks, study length 104 weeks)?
A: Its TD50 is 61.3 mg/kg/day.

Q: What about the TD50 (mouse, strain B6C3F1, females, site: Zymbal's gland, lesion: carcinoma, dosed 104 weeks, study length 104 weeks) of the same compound?
A: Its TD50 is 864 mg/kg/day.

Q: And the TD50 (mouse, strain B6C3F1, females, site: all sites + forestomach + Harderian gland + liver + lung + mesentery + mammary gland + subcutaneous tissue + Zymbal's gland, lesion: hemangioma + hemangiosarcoma + squamous-cell carcinoma + squamous-cell papilloma + adenoma + carcinoma + hepatocellular adenoma + hepa, dosed 104 weeks, study length 104 weeks)?
A: The TD50 was 4 mg/kg/day.

Q: What about the TD50 (mouse, strain B6C3F1, females, site: all sites, lesion: hemangioma + hemangiosarcoma, dosed 104 weeks, study length 104 weeks) of the same compound?
A: The TD50 was 21.5 mg/kg/day.

Q: And the TD50 (mouse, strain B6C3F1, females, site: all sites, lesion: hemangioma, dosed 104 weeks, study length 104 weeks)?
A: The TD50 was 134 mg/kg/day.

Q: And the TD50 (mouse, strain B6C3F1, females, site: all sites, lesion: hemangiosarcoma, dosed 104 weeks, study length 104 weeks)?
A: The TD50 was 22.2 mg/kg/day.

Q: And the TD50 (mouse, strain B6C3F1, females, site: any site (literature study), lesion: several types, types named in the paper, dosed 104 weeks, study length 104 weeks)?
A: Its TD50 is 3.92 mg/kg/day.

Q: What about the TD50 (mouse, strain B6C3F1, females, site: forestomach, lesion: squamous-cell carcinoma + squamous-cell papilloma, dosed 104 weeks, study length 104 weeks) of the same compound?
A: The TD50 was 332 mg/kg/day.

Q: What about the TD50 (mouse, strain B6C3F1, females, site: liver, lesion: hepatocellular adenoma + hepatoblastoma + hepatocellular carcinoma, dosed 104 weeks, study length 104 weeks) of the same compound?
A: Its TD50 is 7.07 mg/kg/day.

Q: And the TD50 (mouse, strain B6C3F1, females, site: liver, lesion: hepatocellular adenoma + hepatocellular carcinoma, dosed 104 weeks, study length 104 weeks)?
A: Its TD50 is 7.07 mg/kg/day.

Q: And the TD50 (mouse, strain B6C3F1, females, site: liver, lesion: hepatocellular adenoma, dosed 104 weeks, study length 104 weeks)?
A: The TD50 was 19.8 mg/kg/day.

Q: And the TD50 (mouse, strain B6C3F1, females, site: liver, lesion: hepatocellular carcinoma, dosed 104 weeks, study length 104 weeks)?
A: The TD50 was 15.2 mg/kg/day.

Q: What about the TD50 (mouse, strain B6C3F1, females, site: lung, lesion: alveolar/bronchiolar adenoma + alveolar/bronchiolar carcinoma, dosed 104 weeks, study length 104 weeks) of the same compound?
A: The TD50 was 5.36 mg/kg/day.

Q: And the TD50 (mouse, strain B6C3F1, females, site: lung, lesion: alveolar/bronchiolar adenoma, dosed 104 weeks, study length 104 weeks)?
A: Its TD50 is 8.65 mg/kg/day.

Q: What about the TD50 (mouse, strain B6C3F1, females, site: lung, lesion: alveolar/bronchiolar carcinoma, dosed 104 weeks, study length 104 weeks) of the same compound?
A: Its TD50 is 14.6 mg/kg/day.

Q: And the TD50 (mouse, strain B6C3F1, females, site: mammary gland, lesion: adenoma + carcinoma, dosed 104 weeks, study length 104 weeks)?
A: The TD50 was 65.6 mg/kg/day.

Q: And the TD50 (mouse, strain B6C3F1, females, site: mammary gland, lesion: carcinoma, dosed 104 weeks, study length 104 weeks)?
A: The TD50 was 75.3 mg/kg/day.

Q: What about the TD50 (mouse, strain B6C3F1, females, site: mesentery, lesion: hemangioma + hemangiosarcoma, dosed 104 weeks, study length 104 weeks) of the same compound?
A: The TD50 was 25.9 mg/kg/day.

Q: What about the TD50 (mouse, strain B6C3F1, females, site: mesentery, lesion: hemangiosarcoma, dosed 104 weeks, study length 104 weeks) of the same compound?
A: The TD50 was 32.2 mg/kg/day.

Q: What about the TD50 (mouse, strain B6C3F1, females, site: mesentery, lesion: sarcoma, dosed 104 weeks, study length 104 weeks) of the same compound?
A: Its TD50 is 40 mg/kg/day.

Q: What about the TD50 (mouse, strain B6C3F1, females, site: pituitary gland, lesion: pars distalis adenoma, dosed 104 weeks, study length 104 weeks) of the same compound?
A: The TD50 was 68.1 mg/kg/day.

Q: And the TD50 (mouse, strain B6C3F1, females, site: subcutaneous tissue, lesion: sarcoma, dosed 104 weeks, study length 104 weeks)?
A: The TD50 was 28.9 mg/kg/day.

Q: And the TD50 (mouse, strain B6C3F1, females, site: uterus, lesion: endometrial stromal polyp, dosed 104 weeks, study length 104 weeks)?
A: Its TD50 is 133 mg/kg/day.

Q: What about the TD50 (mouse, strain B6C3F1, males, site: Harderian gland, lesion: adenoma + adenoma, bilateral + carcinoma, dosed 104 weeks, study length 104 weeks) of the same compound?
A: The TD50 was 60.9 mg/kg/day.

Q: What about the TD50 (mouse, strain B6C3F1, males, site: Harderian gland, lesion: adenoma + adenoma, bilateral, dosed 104 weeks, study length 104 weeks) of the same compound?
A: The TD50 was 79.5 mg/kg/day.

Q: What about the TD50 (mouse, strain B6C3F1, males, site: all sites + forestomach + Harderian gland + lung, lesion: hemangioma + hemangiosarcoma + squamous-cell carcinoma + squamous-cell papilloma + adenoma + adenoma, bilateral + carcinoma + alveolar, dosed 104 weeks, study length 104 weeks) of the same compound?
A: The TD50 was 8.68 mg/kg/day.

Q: And the TD50 (mouse, strain B6C3F1, males, site: all sites, lesion: hemangioma + hemangiosarcoma, dosed 104 weeks, study length 104 weeks)?
A: The TD50 was 17.9 mg/kg/day and 21.3 mg/kg/day.

Q: And the TD50 (mouse, strain B6C3F1, males, site: all sites, lesion: hemangiosarcoma, dosed 104 weeks, study length 104 weeks)?
A: Its TD50 is 19.1 mg/kg/day and 23.8 mg/kg/day.

Q: And the TD50 (mouse, strain B6C3F1, males, site: any site (literature study), lesion: several types, types named in the paper, dosed 104 weeks, study length 104 weeks)?
A: Its TD50 is 28.4 mg/kg/day.

Q: And the TD50 (mouse, strain B6C3F1, males, site: forestomach, lesion: squamous-cell carcinoma + squamous-cell papilloma, dosed 104 weeks, study length 104 weeks)?
A: The TD50 was 291 mg/kg/day.

Q: What about the TD50 (mouse, strain B6C3F1, males, site: forestomach, lesion: squamous-cell papilloma, dosed 104 weeks, study length 104 weeks) of the same compound?
A: Its TD50 is 335 mg/kg/day.

Q: And the TD50 (mouse, strain B6C3F1, males, site: kidney, lesion: tubule adenoma, dosed 104 weeks, study length 104 weeks)?
A: Its TD50 is 301 mg/kg/day and 129 mg/kg/day.

Q: And the TD50 (mouse, strain B6C3F1, males, site: liver, lesion: hemangiosarcoma, dosed 104 weeks, study length 104 weeks)?
A: Its TD50 is 123 mg/kg/day.

Q: What about the TD50 (mouse, strain B6C3F1, males, site: liver, lesion: hepatoblastoma + hepatocellular carcinoma, dosed 104 weeks, study length 104 weeks) of the same compound?
A: The TD50 was 19.5 mg/kg/day.

Q: What about the TD50 (mouse, strain B6C3F1, males, site: liver, lesion: hepatocellular adenoma + hepatoblastoma + hepatocellular carcinoma, dosed 104 weeks, study length 104 weeks) of the same compound?
A: Its TD50 is 39.9 mg/kg/day.

Q: What about the TD50 (mouse, strain B6C3F1, males, site: liver, lesion: hepatocellular adenoma + hepatocellular carcinoma, dosed 104 weeks, study length 104 weeks) of the same compound?
A: Its TD50 is 42.5 mg/kg/day.

Q: What about the TD50 (mouse, strain B6C3F1, males, site: liver, lesion: hepatocellular adenoma, dosed 104 weeks, study length 104 weeks) of the same compound?
A: The TD50 was 71.9 mg/kg/day.

Q: And the TD50 (mouse, strain B6C3F1, males, site: liver, lesion: hepatocellular carcinoma, dosed 104 weeks, study length 104 weeks)?
A: Its TD50 is 21.6 mg/kg/day.
